B1: isoprene synthase (PcISPS) (Populus tremula x Populus alba; C533W/K308R/N59D) (protein)
chain: EARRSADYEPNSWDYDFLLSSDTDESIEVYKDKAKKLEAEVRREINNEKAEFLTLLELIDNVQRLGLGYRFESDIRRALDRFVSSGGFDGVTKTSLHATALSFRLLRQHGFEVSQEAFSGFKDQNGNFLENLKEDTKAILSLYEASFLALEGENILDEARVFAISHLKELSEEKIGKELAEQVNHALELPLHRRTQRLEAVWSIEAYRKKEDANQVLLELAILDYNMIQSVYQRDLRETSRWWRRVGLATKLHFARDRLIESFYWAVGVAFEPQYSDCRNSVAKMFSFVTIIDDIYDVYGTLDELELFTDAVERWDVNAINDLPDYMKLCFLALYNTINEIAYDNLKDKGENILPYLTKAWADLCNAFLQEAKWLYNKSTPTFDDYFGNAWKSSSGPLQLIFAYFAVVQNIKKEEIENLQKYHDIISRPSHIFRLCNDLASASAEIARGETANSVSCYMRTKGISEELATESVMNLIDETWKKMNKEKLGGSLFAKPFVETAINLARQSHCTYHNGDAHTSPDELTRKRVLSVITEPILPFER

Key:
[1] = target: isoprene synthase (PcISPS) (Populus tremula x Populus alba, UniProt Q9AR86, C533W/K308R/N59D); assay: competitive inhibition of isoprene formation, SBSE GC-MS assay; type: biochemical
enzyme kinetics = substrate: CC(C)=CCOP(=O)(O)OP(=O)(O)O; assay: enzyme kinetics; type: biochemical, Populus tremula x Populus alba; conditions: Mg2+ active site

Molecule	Ki [1] [µM]	Km (enzyme kinetics) [µM]
CC(C)=CCC/C(C)=C/COP(=O)(O)OP(=O)(O)O [GPP, geranyl diphosphate]	550	
B1		3000
